Laboratory results taken from US11819499B2, “Single-dose, ready-to-use injectable formulations” (BioSplice Therapeutics, Inc., priority 2016, dated 2023).
One block for each compound: values may come before it.

Assays:
Format in all cases: physicochemical
[1] = Exposure to relative humidity / air followed by XRD
Excerpt: FIGS. 15A-15D are scans of Form 1 in the presence of increasing relative humidity (RH), an example of a non-stoichiometric or stoichiometric hydrate of polymorph Form 1 of the compound of Formula (I). FIG. 15A is an x-ray powder diffraction scan of Form 1 exposed to 10% RH as the anhydrous Form 1. FIG. 15B is an x-ray powder diffraction scan of Form 1 exposed to 20% RH as a partial hydrate of Form 1. FIG. 15C is an x-ray powder diffraction scan of Form 1 exposed to 30% RH as a hydrate of Form 1 (≈10-12% water uptake). FIG. 15D is an x-ray powder diffraction scan of Form 1 exposed to 90% RH as a full hydrate of Form 1 (≈17-20% water uptake). […] The hydrate lost its water below 30% RH. […] The crystal lattice of Form 1 expanded when water was sorbed, giving rise to XRD peaks at ˜5, ˜7 and ˜11 degrees while maintaining the main XRD pattern. The hydrates of Form 1 of a compound of Formula (I) (Form 11) were fully reversible, and lost water when exposed to % RH of less than 20%, turning Form 11 to hydrated forms of Form 1 and to the anhydrous Form 1. Solvates 1 and 2 solids were exposed to air overnight, and then analyzed by XRD. After the analysis, the solids were dried at 50° C. under vacuum, and then analyzed by XRD again.

[2] = Dynamic vapor sorption (DVS) scan; settings: at 90% RH
Excerpt: The purity of the Form 13 sample was 98.8%; the KF of an undried Form 13 sample was 35.7%.

[3] = Drying or heating in a DSC chamber followed by XRD (form conversion)
Description: The Form 1 solid was dried at 75° C. under vacuum overnight, and XRD, DSC, and TGA scans were performed. […] However, the DSC scans indicated the absence of endotherm. The loss of the early peak on the DSC scan had no effect on the XRD trace, showing that the wide endotherm between 50-100° C. on DSC scan was due to the free solvent.
The Form 1 solid was heated in a DSC chamber to 305° C. (past the endotherm/exotherm around 280° C.), and then scanned by XRD. […] It can be concluded that the endotherm/exotherm around 280° C. might be due to melting/crystallization events.
The Form 2 solid was heated in a DSC machine to 90° C. (past the wide endotherm between 50-100° C.); to 270° C. (past the endotherm/exotherm around 240° C.); and finally to 330° C. (past the […]). The residual solid was analyzed by XRD. […] The wide endotherm between 50-100° C. might be free solvent or hydrate. […] Thus, the exotherm around 290° C. was a re-crystallization event. According to an XRD and DSC overlay, the behavior of Form 2* was similar to Form 2.
This has been confirmed for Forms 1 and 2.
Form 13 solid was heated in a DSC chamber to 170° C. (past the endotherm between 50-100° C.), and then scanned by XRD. […] It can be concluded that the endotherm between 50-100° C. is due to bonded water.
Form 13 solid was heated in a DSC chamber to 330° C. (past the endotherm/exotherm around 300° C.), and then scanned by XRD. […] It can be concluded that the endotherm/exotherm is due to melting/crystallization events.

[4] = Exposure to relative humidity / air followed by XRD; remark: listed apart in the source
[5] = Solubility of the starting solid by the gravimetric method; settings: at RT and at 50° C. in all solvents tested except DMF and DMSO
[6] = Competitive slurry experiments between polymorph forms (15 forms mixed, 3-5 days, XRD); settings: water at RT and 50° C.
Description: In order to find out the thermodynamic stability between the different forms, several competitive slurry experiments were carried out. Form 1, Form 2, Form 2*, Form 3, Form 4, Form 4*, Form 4**, Form 5, Form 7, Form 8, Form 9, Form 10, Form 11, Form 11*, and Form 13 (10 mg for each) was mixed and slurried in 2 mL of solvent at both RT and 50° C. The solids were slurried for 3-5 days and then analyzed by XRD.

[7] = Reslurry experiments (polymorph screen) in 39 pure and binary solvents at RT and 50° C. for 5 days, XRD of wet and dry samples
Description: Reslurry experiments in various solvents were performed. Approximately 30-80 mg of the starting solid (a non-stoichiometric or stoichiometric hydrate of Form 1 having between 1% and about 20% by weight water) was slurried in 39 different solvents (pure and binary solvents; the ratio of organic solvent/water (V/V) was 95%/5%) at RT and 50° C. for 5 days. Three solvates, one hydrate, and eleven non-solvated forms were identified. […] XRD of both wet and dry samples were scanned (FIG. 12A (dry sample)).
The slurry experiments identified 3 solvated forms from wet samples (Solvates 1, 2, and 3); 2 non-stoichiometric hydrates of Form 1 (Forms 12 and 13); and 11 non-solvated forms (Forms 1-11). In some instances, similar XRD scans with minor differences were obtained. These were considered to be part of the same class (e.g., the same form). For example, XRD scans of Form 2 and Form 2* were similar and were considered to belong to the same class. The solvated forms were obtained from wet sample analysis; after drying, the sample indicated a different XRD.
Solvate 1 was obtained from acetone at RT, and after drying, a low crystallinity solid was generated. Solvate 2 was obtained from acetone (at RT) and acetone/water (at RT), and after drying, Form 4** was generated. Solvate 3 was obtained from EtOH/water at RT, and after drying, Form 2 was generated.

[8] = reslurry in Acetonitrile/water (5% water), 50° C.
[9] = reslurry in DCM/water (5% water), 50° C.
[10] = reslurry in DCM/water (5% water), RT
[11] = reslurry in Heptane/water (5% water), 50° C.
[12] = reslurry in Heptane/water (5% water), RT
[13] = reslurry in IPAc/water (5% water), 50° C.
[14] = reslurry in MA/water (5% water), RT
[15] = reslurry in MIBK/water (5% water), 50° C.
[16] = reslurry in MeOH/water (5% water), 50° C.
[17] = reslurry in MtBE/water (5% water), 50° C.
[18] = reslurry in Toluene/water (5% water), 50° C.
[19] = reslurry in Toluene/water (5% water), RT
[20] = reslurry in n-Butanol/water (5% water), 50° C.
[21] = reslurry in n-Butanol/water (5% water), RT
[22] = reslurry in n-Butyl acetate/water (5% water), 50° C.
[23] = reslurry in n-Butyl acetate/water (5% water), RT

- water uptake ([1]; exposed to 30% RH (FIG. 15C), hydrate of Form 1): 10-12%
- water uptake ([1]; exposed to 90% RH (FIG. 15D), full hydrate of Form 1): 17-20%
- form when exposed to air ([1]; exposed to air): converts to Form 13
- water absorption (DVS scan) [2]: 17%
- XRD after drying ([3]; dried at 75° C. under vacuum overnight): no change
- form after heating (XRD) ([3]; heated in a DSC chamber to 305° C.): converted to Form 9
- form when heated to just before melting ([3]; heated to just before melting at 364° C.): convert to Form 9
- RH above which Form 1 tended to convert to hydrate of Form 1 (Form 13) [4]: above 4050%
Compound: CC(C)CC(=O)Nc1cncc(-c2ccc3[nH]nc(-c4nc5c(-c6cccc(F)c6)cncc5[nH]4)c3c2)c1 [Form 1, N-(5-(3-(7-(3-fluorophenyl)-3H-imidazo[4,5-c]pyridin-2-yl)-1H-indazol-5-yl)pyridin-3-yl)-3-methylbutanamide]

- Solubility (in words) [5]: low solubility
Compound: CC(C)CC(=O)Nc1cncc(-c2ccc3[nH]nc(-c4nc5c(-c6cccc(F)c6)cncc5[nH]4)c3c2)c1 [starting solid, N-(5-(3-(7-(3-fluorophenyl)-3H-imidazo[4,5-c]pyridin-2-yl)-1H-indazol-5-yl)pyridin-3-yl)-3-methylbutanamide]

- RH below which the hydrate lost its water ([1]; relative humidity): below 30%
- water absorption (DVS scan) [2]: 17%
- thermodynamic stability between forms (competitive slurry) [6]: most stable
- Dry (form by XRD) [7, 8]: Form 13
- Wet (form by XRD) [7, 8]: Form 13
- Dry (form by XRD) ([7]; reslurry in DCM, 50° C.): Form 13
- Wet (form by XRD) ([7]; reslurry in DCM, 50° C.): Form 13
- Dry (form by XRD) [7, 9]: Form 1
- Wet (form by XRD) [7, 9]: Form 13
- Dry (form by XRD) [7, 10]: Form 1
- Wet (form by XRD) [7, 10]: Form 13
- Dry (form by XRD) ([7]; reslurry in Heptane, 50° C.): Form 13
- Wet (form by XRD) ([7]; reslurry in Heptane, 50° C.): Form 13
- Dry (form by XRD) [7, 11]: Form 1
- Wet (form by XRD) [7, 11]: Form 13
- Dry (form by XRD) [7, 12]: Form 12
- Wet (form by XRD) [7, 12]: Form 13
- Dry (form by XRD) [7, 13]: Form 13
- Wet (form by XRD) [7, 13]: Form 13
- Dry (form by XRD) [7, 14]: Form 1
- Wet (form by XRD) [7, 14]: Form 13
- Dry (form by XRD) [7, 15]: Form 1
- Wet (form by XRD) [7, 15]: Form 13
- Dry (form by XRD) ([7]; reslurry in MeOH, RT): Form 1
- Wet (form by XRD) ([7]; reslurry in MeOH, RT): Form 13
- Dry (form by XRD) [7, 16]: Form 13
- Wet (form by XRD) [7, 16]: Form 13
- Dry (form by XRD) [7, 17]: Form 13
- Wet (form by XRD) [7, 17]: Form 13
- Dry (form by XRD) [7, 18]: Form 13
- Wet (form by XRD) [7, 18]: Form 13
- Dry (form by XRD) [7, 19]: Form 1
- Wet (form by XRD) [7, 19]: Form 13
- Dry (form by XRD) [7, 20]: Form 1
- Wet (form by XRD) [7, 20]: Form 13
- Dry (form by XRD) [7, 21]: Form 13
- Wet (form by XRD) [7, 21]: Form 13
- Dry (form by XRD) [7, 22]: Form 1
- Wet (form by XRD) [7, 22]: Form 13
- Dry (form by XRD) [7, 23]: Form 12
- Wet (form by XRD) [7, 23]: Form 13
- Dry (form by XRD) ([7]; reslurry in water, 50° C.): Form 13
- Wet (form by XRD) ([7]; reslurry in water, 50° C.): Form 13
- Dry (form by XRD) ([7]; reslurry in water, RT): Form 1
- Wet (form by XRD) ([7]; reslurry in water, RT): Form 13
- form after heating (XRD) ([3]; heated in a DSC chamber to 170° C.): converted to Form 1
- form after heating (XRD) ([3]; heated to 330° C.): converted to Form 9
- form upon drying ([3]; upon drying): converted to Form 1
Compound: CC(C)CC(=O)Nc1cncc(-c2ccc3[nH]nc(-c4nc5c(-c6cccc(F)c6)cncc5[nH]4)c3c2)c1 [Form 13, N-(5-(3-(7-(3-fluorophenyl)-3H-imidazo[4,5-c]pyridin-2-yl)-1H-indazol-5-yl)pyridin-3-yl)-3-methylbutanamide]
